Laboratory results from PubChem BioAssay AID1745844 (Carcinogenic Potency Database (CPDB), 2022).
Several values for one entry are separate records, joined by “and”; a condition that tells them apart may be missing. Equal values may be shown once. Activity calls are given as the source filed them. The rule behind the calls is not given here.

Test system: rodent lifetime carcinogenesis bioassay, tumor incidence TD50
Test: carcinogenic potency in animals, long-term in vivo studies, CPDB compilation (AID 1745844)

SMILES: ClC(Cl)C(Cl)(Cl)Cl
- TD50 (mouse, strain B6C3F1, females, by gavage, site: any site (literature study), lesion: several types, types named in the paper, dosed 103 weeks, study length 104 weeks): 39.5 mg/kg/day
- TD50 (mouse, strain B6C3F1, females, by gavage, site: liver, lesion: hepatocellular adenoma + hepatocellular carcinoma + neoplastic nodule, dosed 103 weeks, study length 104 weeks): 39.8 mg/kg/day
- TD50 (mouse, strain B6C3F1, females, by gavage, site: liver, lesion: hepatocellular adenoma + hepatocellular carcinoma, dosed 103 weeks, study length 104 weeks): 39.8 mg/kg/day
- TD50 (mouse, strain B6C3F1, females, by gavage, site: liver, lesion: hepatocellular adenoma, dosed 103 weeks, study length 104 weeks): 153 mg/kg/day
- TD50 (mouse, strain B6C3F1, females, by gavage, site: liver, lesion: hepatocellular carcinoma, dosed 103 weeks, study length 104 weeks): 66.6 mg/kg/day
- TD50 (mouse, strain B6C3F1, females, by gavage, site: lung, lesion: alveolar/bronchiolar adenoma + alveolar/bronchiolar carcinoma, dosed 103 weeks, study length 104 weeks): 1030 mg/kg/day
- TD50 (mouse, strain B6C3F1, males, by gavage, site: any site (literature study), lesion: several types, types named in the paper, dosed 103 weeks, study length 104 weeks): 85.6 mg/kg/day
- TD50 (mouse, strain B6C3F1, males, by gavage, site: liver, lesion: hepatocellular adenoma + hepatocellular carcinoma + neoplastic nodule, dosed 103 weeks, study length 104 weeks): 107 mg/kg/day
- TD50 (mouse, strain B6C3F1, males, by gavage, site: liver, lesion: hepatocellular adenoma + hepatocellular carcinoma, dosed 103 weeks, study length 104 weeks): 107 mg/kg/day
- TD50 (mouse, strain B6C3F1, males, by gavage, site: liver, lesion: hepatocellular carcinoma, dosed 103 weeks, study length 104 weeks): 102 mg/kg/day
- TD50 (rat, strain Fischer 344, females, by gavage, site: any site (literature study), lesion: several types, types named in the paper, dosed 103 weeks, study length 104 weeks): 1660 mg/kg/day (inactive)
- TD50 (rat, strain Fischer 344, males, by gavage, site: kidney, lesion: tubular-cell adenoma + tubular-cell adenocarcinoma, dosed 103 weeks, study length 104 weeks): 662 mg/kg/day
- TD50 (rat, strain Fischer 344, males, by gavage, site: kidney, lesion: tubular-cell adenoma, dosed 103 weeks, study length 104 weeks): 635 mg/kg/day

SMILES: Cc1nc(N)cc2[nH]c3ccccc3c12
- TD50 (mouse, strain CDF1, females, in feed, site: liver, lesion: hepatocellular carcinoma, dosed 88 weeks, study length 88 weeks): 6.81 mg/kg/day
- TD50 (mouse, strain CDF1, males, in feed, site: liver, lesion: hepatocellular carcinoma, dosed 88 weeks, study length 88 weeks): 88.2 mg/kg/day
- TD50 (mouse, strain CDF1, males, in feed, site: liver, lesion: several types, types named in the paper, dosed 88 weeks, study length 88 weeks): 83.2 mg/kg/day
- TD50 (mouse, strain CDF1, males, in feed, site: lung, lesion: adenocarcinoma, dosed 88 weeks, study length 88 weeks): 81.1 mg/kg/day
- TD50 (mouse, strain CDF1, males, in feed, site: lung, lesion: adenoma, dosed 88 weeks, study length 88 weeks): 224 mg/kg/day
- TD50 (rat, strain ACI, females, in feed, site: ileum, lesion: adenoma, dosed 124 weeks, study length 124 weeks): 41.4 mg/kg/day
- TD50 (rat, strain ACI, females, in feed, site: jejunum, lesion: adenocarcinoma, dosed 124 weeks, study length 124 weeks): 41.4 mg/kg/day
- TD50 (rat, strain ACI, females, in feed, site: liver, lesion: hemangioendothelial sarcoma, dosed 124 weeks, study length 124 weeks): 41.4 mg/kg/day
- TD50 (rat, strain ACI, females, in feed, site: liver, lesion: neoplastic nodule, dosed 124 weeks, study length 124 weeks): 4.43 mg/kg/day
- TD50 (rat, strain ACI, females, in feed, site: liver, lesion: several types, types named in the paper, dosed 124 weeks, study length 124 weeks): 4.43 mg/kg/day
- TD50 (rat, strain F344/DuCrj, females, in feed, site: all sites, lesion: malignant lymphoma, dosed 112 weeks, study length 112 weeks): 29 mg/kg/day
- TD50 (rat, strain F344/DuCrj, females, in feed, site: clitoral gland, lesion: adenocarcinoma, dosed 112 weeks, study length 112 weeks): 75.5 mg/kg/day
- TD50 (rat, strain F344/DuCrj, females, in feed, site: clitoral gland, lesion: adenoma, dosed 112 weeks, study length 112 weeks): 12.8 mg/kg/day
- TD50 (rat, strain F344/DuCrj, females, in feed, site: clitoral gland, lesion: several types, types named in the paper, dosed 112 weeks, study length 112 weeks): 9.42 mg/kg/day
- TD50 (rat, strain F344/DuCrj, females, in feed, site: liver, lesion: hepatocellular adenoma, dosed 112 weeks, study length 112 weeks): 74.3 mg/kg/day
- TD50 (rat, strain F344/DuCrj, females, in feed, site: mammary gland, lesion: adenoma, dosed 112 weeks, study length 112 weeks): 76.2 mg/kg/day
- TD50 (rat, strain F344/DuCrj, females, in feed, site: mammary gland, lesion: several types, types named in the paper, dosed 112 weeks, study length 112 weeks): 9.78 mg/kg/day and 11.5 mg/kg/day
- TD50 (rat, strain F344/DuCrj, females, in feed, site: uterus, lesion: endometrial stromal polyp, dosed 112 weeks, study length 112 weeks): 3.6 mg/kg/day
- TD50 (rat, strain F344/DuCrj, males, in feed, site: liver, lesion: hepatocellular adenoma, dosed 112 weeks, study length 112 weeks): 10.7 mg/kg/day
- TD50 (rat, strain F344/DuCrj, males, in feed, site: mammary gland, lesion: several types, types named in the paper, dosed 112 weeks, study length 112 weeks): 8.43 mg/kg/day
- TD50 (rat, strain F344/DuCrj, males, in feed, site: urinary bladder, lesion: several types, types named in the paper, dosed 112 weeks, study length 112 weeks): 9.72 mg/kg/day
- TD50 (rat, strain F344/DuCrj, males, in feed, site: urinary bladder, lesion: transitional-cell carcinoma, dosed 112 weeks, study length 112 weeks): 59.9 mg/kg/day
- TD50 (rat, strain F344/DuCrj, males, in feed, site: urinary bladder, lesion: transitional-cell papilloma, dosed 112 weeks, study length 112 weeks): 12.3 mg/kg/day

SMILES: O=S(=O)(O)c1ccc2c(N=Nc3ccc(S(=O)(=O)O)c4ccccc34)c(O)c(S(=O)(=O)O)cc2c1
- TD50 (rat, strain Mongrel, both sexes, in feed, site: any site (literature study), lesion: several types, types named in the paper, dosed 108 weeks, study length 108 weeks): 632 mg/kg/day
- TD50 (rat, strain Non-inbred, both sexes, in feed, site: any site (literature study), lesion: several types, types named in the paper, dosed 143 weeks, study length 143 weeks): 3320 mg/kg/day
- TD50 (rat, strain Non-inbred, both sexes, in feed, site: liver, lesion: hepatoma, dosed 143 weeks, study length 143 weeks): 49500 mg/kg/day
- TD50 (rat, strain Not specified, females, in feed, site: any site (literature study), lesion: several types, types named in the paper, dosed 64 weeks, study length 64 weeks): 1640 mg/kg/day (inactive)
- carcinogen call (rat, strain Not specified, females, in feed, site: liver, lesion: one or several types, types not named, dosed 64 weeks, study length 64 weeks): negative (inactive)
- carcinogen call (rat, strain Not specified, males, in feed, site: any site (literature study), lesion: several types, types named in the paper, dosed 64 weeks, study length 64 weeks): negative (inactive)
- carcinogen call (rat, strain Not specified, males, in feed, site: liver, lesion: one or several types, types not named, dosed 64 weeks, study length 64 weeks): negative (inactive)
- carcinogen call (rat, strain Sprague-Dawley, females, in feed, site: any site (literature study), lesion: one or several types, types not named, dosed 52 weeks, study length 52 weeks): negative (inactive)
- carcinogen call (rat, strain Sprague-Dawley, females, in feed, site: liver, lesion: one or several types, types not named, dosed 52 weeks, study length 52 weeks): negative (inactive)
- TD50 (rat, strain Wistar, both sexes, in feed, site: abdomen, lesion: malignant lymphoma, dosed 91 weeks, study length 91 weeks): 6130 mg/kg/day

SMILES: CN(N=O)C(=O)c1ccccc1C(=O)N(C)N=O
- carcinogen call (rat, strain Wistar, males, by gavage, site: any site (literature study), lesion: several types, types named in the paper, dosed 67 weeks, study length 67 weeks): negative (inactive)

SMILES: C[C@]12CCC(=O)C=C1CC[C@@H]1[C@@H]2[C@@H](O)C[C@@]2(C)[C@H]1CC[C@]2(O)C(=O)CO
- carcinogen call (rat, strain Sprague-Dawley, females, by gavage, site: any site (literature study), lesion: malignant tumor, dosed 110 weeks, study length 110 weeks): negative (inactive)
- carcinogen call (rat, strain Sprague-Dawley, males, by gavage, site: any site (literature study), lesion: malignant tumor, dosed 104 weeks, study length 104 weeks): negative (inactive)

SMILES: COC(=O)C(c1ccccc1)C1CCCCN1N=O (stereo not given)
- carcinogen call (mouse, strain (C57BL/6 x BALB/c)F1, females, in drinking water, site: any site (literature study), lesion: several types, types named in the paper, dosed 73 weeks, study length 106 weeks): negative (inactive)
- carcinogen call (mouse, strain (C57BL/6 x BALB/c)F1, females, in drinking water, site: liver, lesion: one or several types, types not named, dosed 73 weeks, study length 106 weeks): negative (inactive)
- carcinogen call (mouse, strain (C57BL/6 x BALB/c)F1, females, in drinking water, site: lung, lesion: one or several types, types not named, dosed 73 weeks, study length 106 weeks): negative (inactive)
- carcinogen call (mouse, strain (C57BL/6 x BALB/c)F1, males, in drinking water, site: any site (literature study), lesion: several types, types named in the paper, dosed 73 weeks, study length 106 weeks): negative (inactive)
- carcinogen call (mouse, strain (C57BL/6 x BALB/c)F1, males, in drinking water, site: lung, lesion: one or several types, types not named, dosed 73 weeks, study length 106 weeks): negative (inactive)

SMILES: O=NN1CSCSC1
- TD50 (rat, strain Fischer 344, females, by gavage, site: liver, lesion: hepatocellular carcinoma, dosed 47 weeks, study length 110 weeks): 10.5 mg/kg/day (inactive)
- TD50 (rat, strain Fischer 344, females, by gavage, site: nasal mucosa, lesion: carcinoma, dosed 47 weeks, study length 110 weeks): 5.11 mg/kg/day

SMILES: O=Nc1ccc(NO)cc1
- TD50 (mouse, strain B6C3F1, females, in feed, site: any site (literature study), lesion: several types, types named in the paper, dosed 104 weeks, study length 105 weeks): 6710 mg/kg/day (inactive)
- TD50 (mouse, strain B6C3F1, females, in feed, site: liver, lesion: hepatocellular adenoma + hepatocellular carcinoma + neoplastic nodule, dosed 104 weeks, study length 105 weeks): 656 mg/kg/day
- TD50 (mouse, strain B6C3F1, females, in feed, site: lung, lesion: alveolar/bronchiolar adenoma + alveolar/bronchiolar carcinoma, dosed 104 weeks, study length 105 weeks): 6660 mg/kg/day
- TD50 (mouse, strain B6C3F1, males, in feed, site: any site (literature study), lesion: several types, types named in the paper, dosed 104 weeks, study length 105 weeks): 936 mg/kg/day (inactive)
- TD50 (mouse, strain B6C3F1, males, in feed, site: liver, lesion: hepatocellular adenoma + hepatocellular carcinoma + neoplastic nodule, dosed 104 weeks, study length 105 weeks): 1.23e+06 mg/kg/day
- TD50 (rat, strain Fischer 344, females, in feed, site: urinary bladder, lesion: squamous-cell carcinoma + transitional-cell carcinoma + transitional-cell papilloma, dosed 104 weeks, study length 105 weeks): 106 mg/kg/day
- TD50 (rat, strain Fischer 344, females, in feed, site: urinary bladder, lesion: transitional-cell carcinoma, dosed 104 weeks, study length 105 weeks): 182 mg/kg/day
- TD50 (rat, strain Fischer 344, males, in feed, site: any site (literature study), lesion: several types, types named in the paper, dosed 104 weeks, study length 105 weeks): 349 mg/kg/day (inactive)
- TD50 (rat, strain Fischer 344, males, in feed, site: liver, lesion: hepatocellular adenoma + hepatocellular carcinoma + neoplastic nodule, dosed 104 weeks, study length 105 weeks): 1130 mg/kg/day
